Where two headings read alike, the source gives them in different places.

For data set [1] the following is noted: oral, conventional dosage form; cited from earlier work.
Data set [2] in a line: Pre-dose (trough) plasma level of orlistat and acarbose at steady state, week 26. The data set is classed as in vivo, human. Conditions: steady state week 26, patients on active treatment.
For data set [3] the following is noted: cited from earlier work; for Placebo adjusted reduction of body weight: oral administration for 6 months; for Additional weight loss relative to placebo: at one year, on average.
The conditions of data set [4]: cited from earlier work.
The conditions of data set [5]: cited from earlier work. The source holds these as a separate data set.

For the compound `OCCN1C[C@H](O)[C@@H](O)[C@H](O)[C@H]1CO` [Miglitol], in data set [1], the “Fraction of the dose absorbed” value was 100%.

As for `C[C@H]1O[C@H](O[C@H]2[C@H](O)[C@@H](O)[C@@H](O[C@H]3[C@H](O)[C@@H](O)C(O)O[C@@H]3CO)O[C@@H]2CO)[C@H](O)[C@@H](O)[C@@H]1N[C@H]1C=C(CO)[C@@H](O)[C@H](O)[C@H]1O` (stereo partly drawn) [acarbose, O-4,6-Dideoxy-4-[[(1S,4R,5S,6S)-4,5,6-trihydroxy-3-(hydroxymethyl)cyclohex-2-enyl]amino]-α-D-glucopyranosyl-(1→4)-O-α-D-gluco-pyranosyl-(1→4)-D-glucopyranose], in data set [2], the “Patients in whom low plasma levels were measured” value was 3 of 75. The “Placebo adjusted reduction of body weight” value in data set [3] is recorded as “approx. 0.5%”.

Turning to `C[C@H]1CNCCc2ccc(Cl)cc21` [lorcaserin], the “Additional weight loss relative to placebo” value in data set [3] is on record as around 3%. In data set [3] (human, in vivo), the “Body weight decrease more than placebo” value is on record as “about 3.2 kg” and the “Body weight decrease more than placebo, of initial body weight” value is on record as “about 3.2%”.

For `CCCCCCCCCCC[C@@H](C[C@@H]1OC(=O)[C@H]1CCCCCC)OC(=O)[C@H](CC(C)C)NC=O` [orlistat, (S)—((S)-1-((2S,3S)-3-Hexyl-4-oxooxetan-2-yl)tridecan-2-yl) 2-formamido-4-methylpentanoate], in data set [4], the “Solubility in water” value is on record as “practically insoluble in water” and the Water solubility entry is reported as “less than 0.001 g/ml”. Also, the “Patients complaining about GI side-effects (diarrhea, oily spotting, fecal urgency)” value in data set [5] (clinical trials, conventional dosage form) is listed as at least 25%. In addition, the “Participants reporting faecal incontinence” value in data set [5] (similar 6-month trial) is listed as 5%. Also, the “Participants reporting faecal incontinence” value in data set [5] (trials of longer duration) was “approximately 18%”. The “Patients in whom low plasma levels were measured” value in data set [2] is reported as 27 of 75. In data set [3], the “Additional weight loss relative to placebo” value is listed as around 3% and the “Placebo adjusted reduction of body weight” value is recorded as 2-3%. Also, the “Approximate relative weight loss” value in data set [3] (conventional dosage forms) is 2-3%. For the same compound, in data set [3] (versus placebo 6%), the “Relative weight loss, best case scenario” value is recorded as 10%. In data set [1], the “Fraction of the dose absorbed” value was below 3% and the Plasma exposure was below 5 ng/mL.

Source of the values: US20250127752A1, “REDUCED REBOUND EFFECTS IN SUBJECTS TREATED FOR OVERWEIGHT OR OBESITY” (Empros Pharma AB, priority 2021, published 2025).
